According to patent US4906661A, “Esters of aryloxypropanolamine derivatives” (E. I. Du Pont de Nemours and Company, priority 1989, dated 1990):
Where a name gives a salt, the structure may show the parent alone. Read-outs that look alike come from different tables or passages of the source.

What was measured:
[1] = target: β1 receptors, guinea pig right atria (Cavia porcellus, UniProt H0W3H1); assay: cell-based
Protocol: Each tissue was suspended between a fixed glass rod and a Statham Universal Transducer connected to a Beckman recorder. Atria were allowed to beat spontaneously under a loading tension of approximately 0.5 gm. Intrinsic depressant or stimulant activity was determined for each compound by progressively increasing concentrations in the tissue baths at 60-minute intervals. Tissues were not washed between increments. The maximum concentration showing little or no cardiodepressant activity was chosen for blockade experiments. Changes in rate in response to isoproterenol, a standard β-receptor agonist, were measured in the absence and presence of test compounds. Spiral strips of guinea pig trachea were suspended under 5 gm resting tension and incubated with phentolamine, tropolone and cocaine. Active tension was generated by addition of carbachol (3.0×10^-7 M) and decreases in tension in response to isoproterenol were quantitated. Cumulative concentration-response curves were produced with isoproterenol both before and after 60-minute incubation of test compounds with atria and trachea. […] The blocking potency of test compounds was estimated by computing pA2 values (-log KB) by the method of Furchgott, the Pharmacological Differentiation of Adrenergic Receptors, Ann. […] The degree of cardioselectivity was estimated from the ratio, KB trachea/KB atria (10^(pA2 atria-pA2 trachea)). A ratio greater than one indicates cardioselectivity. Test drugs were dissolved in distilled water and added to the bath (30 ml) in a volume of 10 or 100 μl.

[2] = target: β2 receptors, guinea pig trachea (Cavia porcellus, UniProt Q8K4Z4); assay: cell-based
β2 receptors, guinea pig trachea, sequence (Q8K4Z4 whole entry): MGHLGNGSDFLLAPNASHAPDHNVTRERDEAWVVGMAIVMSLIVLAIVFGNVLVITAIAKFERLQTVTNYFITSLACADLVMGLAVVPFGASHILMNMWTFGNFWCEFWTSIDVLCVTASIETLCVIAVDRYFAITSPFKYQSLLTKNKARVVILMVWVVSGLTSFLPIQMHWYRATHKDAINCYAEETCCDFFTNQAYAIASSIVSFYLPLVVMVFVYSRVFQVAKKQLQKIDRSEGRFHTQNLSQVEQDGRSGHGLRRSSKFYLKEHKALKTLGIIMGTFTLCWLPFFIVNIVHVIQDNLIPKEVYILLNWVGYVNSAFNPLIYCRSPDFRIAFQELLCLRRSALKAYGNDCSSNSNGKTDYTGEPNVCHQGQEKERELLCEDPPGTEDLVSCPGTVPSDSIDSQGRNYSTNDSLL
Protocol: Each tissue was suspended between a fixed glass rod and a Statham Universal Transducer connected to a Beckman recorder. Atria were allowed to beat spontaneously under a loading tension of approximately 0.5 gm. Intrinsic depressant or stimulant activity was determined for each compound by progressively increasing concentrations in the tissue baths at 60-minute intervals. Tissues were not washed between increments. […] Changes in rate in response to isoproterenol, a standard β-receptor agonist, were measured in the absence and presence of test compounds. Spiral strips of guinea pig trachea were suspended under 5 gm resting tension and incubated with phentolamine, tropolone and cocaine. Active tension was generated by addition of carbachol (3.0×10^-7 M) and decreases in tension in response to isoproterenol were quantitated. Cumulative concentration-response curves were produced with isoproterenol both before and after 60-minute incubation of test compounds with atria and trachea. […] The blocking potency of test compounds was estimated by computing pA2 values (-log KB) by the method of Furchgott, the Pharmacological Differentiation of Adrenergic Receptors, Ann. […] A ratio greater than one indicates cardioselectivity. Test drugs were dissolved in distilled water and added to the bath (30 ml) in a volume of 10 or 100 μl.

[3] = system: heart rate response to isoproterenol; assay: Duration and potency of beta-blocking action in vivo, 3-hour infusion in anesthetized dogs, isoproterenol challenge; design: species or system dog; conditions: for Duration, time for 50% recovery from 50% blockade levels: Table IV, after infusion of drug, mean ± SEM
Protocol: The duration of β-blockade was determined In vivo using pentobarbital-anesthetized dogs instrumented for measurement of heart rate using a Beckman cardiotachometer triggered electronically by a phasic aortic blood pressure signal. Both vagus nerves were served in the cervical region and the animals were mechanically ventilated. The experimental design used employed a 3-hour infusion of test compound. Bolus doses of isoproterenol (0.5 μg/kg) were used to assess the degree of β-blockade and recovery from β-blockade after […] of the infusion. The doses were spaced at 10-minute intervals and were given before, during and following the infusion of test compounds. The infusion rate was adjusted so that at the end of the 3-hour infusion period the degree of isoproterenol inhibition averaged about 50% of control. Following termination of blocker infusion, percent recovery from β-blockade was computed and the time associated with 80% recovery estimated.
^c Time in minutes for 50% recovery from 50% blockade levels after 3
Infusions of drug. Number of experiments is equal to or greater than thre
for each compound unless noted otherwise. Tabulated data are mean values
^c The betablocking activities were evaluated Invivo in a canine
model. The betablocker was infused in the animal for 3 hours with the dos
adjusted to give approximately 50%. blockage of the Isoproternolinduced
tachycardia. The infusion was then terminated and the time required for
80% recovery of blockade was recorded as duration of action of the
compound. The amount of drug infused during the 3 hours was averaged and
expressed as potency in ug/kg/min.

[4] = topical (eye), Physicians' Desk Reference 1981; cited from earlier work
[5] = Ocular toxicity noted in corneal anesthesia test; type: in vivo; conditions: Table IV footnote e
[6] = system: β-adrenergic receptors, guinea pig trachea vs right atria; assay: Cardioselectivity, KB trachea/KB atria; type: cell-based; conditions: 10^(pA2 atria-pA2 trachea); ratio greater than one indicates cardioselectivity
Protocol: Each tissue was suspended between a fixed glass rod and a Statham Universal Transducer connected to a Beckman recorder. Atria were allowed to beat spontaneously under a loading tension of approximately 0.5 gm. Intrinsic depressant or stimulant activity was determined for each compound by progressively increasing concentrations in the tissue baths at 60-minute intervals. Tissues were not washed between increments. The maximum concentration showing little or no cardiodepressant activity was chosen for blockade experiments. Changes in rate in response to isoproterenol, a standard β-receptor agonist, were measured in the absence and presence of test compounds. Spiral strips of guinea pig trachea were suspended under 5 gm resting tension and incubated with phentolamine, tropolone and cocaine. Active tension was generated by addition of carbachol (3.0×10^-7 M) and decreases in tension in response to isoproterenol were quantitated. Cumulative concentration-response curves were produced with isoproterenol both before and after 60-minute incubation of test compounds with atria and trachea. […] The degree of cardioselectivity was estimated from the ratio, KB trachea/KB atria (10^(pA2 atria-pA2 trachea)). A ratio greater than one indicates cardioselectivity. Test drugs were dissolved in distilled water and added to the bath (30 ml) in a volume of 10 or 100 μl.

[7] = Half-life in dog whole blood (procedure D); type: in vitro ADME; conditions: 37° C., read-out: T1/2 dog blood
Protocol: (§1) In each experiment, 1 ml of a solution containing 50 μg of the test compound was added to 1 ml of whole blood or 1 ml of a 33% (w/v) liver homogenate. The samples were incubated in a Dubnoff shaking metabolic incubator for 2.5, 5.0, 10.0, 20.0, 30.0 and 60.0 minutes at 37° C. At the designated time periods, the test mixtures were removed from the incubator and transferred to a 0° C. ice bath. Acetonitrile (2 ml) was immediately added and the mixtures were mixed to stop enzymatic hydrolysis. Zero time samples were prepared by adding 2 ml of acetonitrile to denature the proteins prior to addition of the test compounds. After centrifugation to sediment denatured proteins, 2 ml of the supernatant was removed and analyzed by high pressure liquid chromatography, using a mobile phase of 60% acetonitrile/40% 0.05 M sodium phosphate buffer (pH 6.6), a U.V. detector and Waters μ Bondapak Phenyl column.
(§2) The half life of each test compound was determined graphically by plotting the decrease in concentrations as a function of time.

[8] = Half-life in dog liver homogenate (procedure D); type: in vitro ADME; conditions: 37° C., read-out: T1/2 dog liver homogenate
Protocol: as §1, §2

[9] = Table IV, mean, n ≥ 2, range ≤ ± 0.2 units, read-out: pA2 Atria (converted)
[10] = Table IV, mean, n ≥ 2, range ≤ ± 0.2 units, read-out: pA2 Trachea (converted)
[11] = Table I, guinea pig right atria, vs isoproterenol, -log KB, read-out: PA2 Rt. Atria (converted)
[12] = Table I, guinea pig trachea, vs isoproterenol, -log KB, read-out: PA2 Trachea (converted)

β1 receptors, guinea pig right atria, sequence (H0W3H1 1-470): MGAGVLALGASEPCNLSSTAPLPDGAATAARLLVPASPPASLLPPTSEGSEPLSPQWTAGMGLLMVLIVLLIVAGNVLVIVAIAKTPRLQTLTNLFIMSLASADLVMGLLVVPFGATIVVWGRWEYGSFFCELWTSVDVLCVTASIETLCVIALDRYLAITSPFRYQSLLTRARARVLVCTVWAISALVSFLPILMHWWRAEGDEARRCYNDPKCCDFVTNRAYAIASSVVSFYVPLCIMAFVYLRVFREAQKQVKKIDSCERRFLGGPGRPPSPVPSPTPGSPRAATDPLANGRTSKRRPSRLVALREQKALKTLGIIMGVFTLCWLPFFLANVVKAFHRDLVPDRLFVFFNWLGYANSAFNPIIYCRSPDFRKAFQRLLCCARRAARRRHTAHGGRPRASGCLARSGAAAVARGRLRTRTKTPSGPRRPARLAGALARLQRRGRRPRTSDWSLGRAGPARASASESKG

## CCOC(=O)CCc1ccc(OCC(O)CNCCNC(=O)C(C)C)cc1 (stereo not drawn) [No. 10 (Table IV)]
[1]; [9]
  Kb: 794 nM
[2]; [10]
  Kb: 398 nM
[3]
  Duration, time for 50% recovery from 50% blockade levels: 6 ± 3 min

## CC(C)(C)NC[C@H](O)COc1nsnc1N1CCOCC1 [timolol maleate]
[4]
  adverse reactions to the topical use: bronchospasm and heart failure, as well as cardiac conduction defects

## CCOC(=O)CCc1ccccc1OCC(O)CNCCNS(=O)(=O)c1ccc(C)cc1 (stereo not drawn) [No. 8 (Table IV)]
[1]; [9]
  Kb: 794 nM
[2]; [10]
  Kb: 126 nM
[5]
  ocular toxicity: extreme ocular toxicity

## CCOC(=O)CCc1ccc(OCC(O)CNCCNC(=O)Cc2ccccc2)cc1 (stereo not drawn) [No. 12 (Table IV)]
[1]; [9]
  Kb: 31.6 nM
[2]; [10]
  Kb: 1260 nM
[3]
  Duration, time for 50% recovery from 50% blockade levels: 6 ± 4 min

## CCOC(=O)CCc1ccc(OCC(O)CNC(C)(C)CNC(N)=O)cc1 (stereo not drawn) [No. 13 (Table IV)]
[1]; [9]
  Kb: 1000 nM
[2]; [10]
  Kb: 398 nM
[3]
  Duration, time for 50% recovery from 50% blockade levels: 12 ± 4 min

## COC(=O)c1ccccc1OCC(O)CNCCNC(=O)Nc1ccccc1 (stereo not drawn) [Example IV, Methyl 2-[2-Hydroxy-3-[N-[2-[N-(phenylaminocarbonyl)amino]ethyl]amino]propoxy]benzoate]
[1]; [11]
  Kb: 7.94 nM
[2]; [12]
  Kb: 200 nM
[6]
  Cardioselectivity KB (Trachea)/KB (Atria): 25
[3]; Table II, 50% recovery from β-blockade after termination of infusion
  Recovery Time 50%: > 60 min
[3]; Table II, 80% recovery from β-blockade after termination of infusion
  Recovery Time 80%: > 60 min
[3]; Table II, end of 3-hour infusion, isoproterenol 0.5 μg/kg
  % I, percent inhibition of heart rate response to isoproterenol: 72 ± 3%
[7]
  half-life: > 3 h
[8]
  half-life: > 3 h

## COC(=O)c1ccccc1OCC(O)CNCCNS(=O)(=O)c1ccc(C)cc1.O=C(O)C(=O)O (stereo not drawn) [Example VII, Methyl 2-[2-Hydroxy-3-[N-[2-[N-(4-methylphenylsulfonyl)amino]ethyl]amino]propoxy]benzoate Oxalate]
[1]; [11]
  Kb: 158 nM
[2]; [12]
  Kb: 79.4 nM
[6]
  Cardioselectivity KB (Trachea)/KB (Atria): 2

## CCOC(=O)CCc1ccc(OCC(O)CNCCNC(C)=O)cc1 (stereo not drawn) [No. 9 (Table IV)]
[1]; [9]
  Kb: 501 nM
[2]; [10]
  Kb: 316 nM
[3]
  Duration, time for 50% recovery from 50% blockade levels: 10 ± 4 min
